Test results taken from patent US20080213813A1, “Histone deacetylase inhibitor and use thereof” (priority 2002, published 2008).

Tests used:
Assay type in all cases: cell-based, human
HeLa cells [1] = test: Changes in microtubule structure in HeLa cells (immunofluorescence, confocal microscopy); details: FIG. 5
Method: HeLa cells were plated on the Lab-TekII Chambered Coverglass (Nunc), and were subjected to:
(1) treatment for 16 hours with 1 μM Paclitaxel (Sigma), a microtubule polymerizing agent;
(3) the introduction of HDAC6 antisense oligonucleotide No. 4 at a final concentration of 200 nM with OligofectAMINE followed by a 24-hour culture.
Then, Lab-TekII Chambered Coverglass was washed with 0.1 M PIPES (pH 6.9), the cells were fixed in 0.5% glutaraldehyde/0.1 M PIPES (pH 6.9) for 10 minutes, washed three times with PBS, permealized three times with 0.5% Triton X100/PBS for 5 minutes each, washed three times with PBS, treated three times with 2.5 mg/ml sodium borohydride/50% ethanol for 10 minutes each, washed three times with PBS, blocked with 10% normal goat serum/PBS, reacted with a primary antibody (a) anti-acetylated α-tubulin antibody (clone 6-11B-1, Sigma) or (b) anti-α-tubulin antibody (clone DM lA, Sigma)/PBS for 1 hour, washed three times with 0.1% Tween 20/PBS, reacted with a second antibody Alexa Fluor 488-conjugated anti-mouse IgG (Molecular Probe)/PBS for 30 minutes, and washed three times with 0.1% Tween 20/PBS, and then examined under a conforcal laser scanning microscope (Carl Zeiss).

HeLa cells [2] = test: Microtubule stability against Colcemid in HeLa cells (immunofluorescence); details: pretreated (1 μM 16 hours, or 200 nM oligonucleotide 24 hours), then 1 μM Colcemid 15 minutes, FIG. 11
Method: (3) the introduction of HDAC6 antisense oligonucleotide No. 16 at a final concentration of 200 nM with OligofectAMINE followed by a 24-hour culture.
Then, Lab-TekII Chambered Coverglass was washed with 0.1 M PIPES (pH 6.9), the cells were fixed in 0.5% glutaraldehyde/0.1 PIPES (pH 6.9) for 10 minutes, washed three times with PBS, permealized three times with 0.5% Triton X100/PBS for 5 minutes each, washed three times with PBS, treated three times with 2.5 mg/ml sodium borohydride/50% ethanol for 10 minutes each, washed three times with PBS, blocked with 10% normal goat serum/PBS, reacted with a primary antibody rat anti-α-tubulin monoclonal antibody (MAB1864; CHEMICON)/PBS for 1 hour, washed three times with 0.1% Tween 20/PBS, reacted with a second antibody Alexa Fluor 488-conjugated anti-rat IgG (Molecular Probe)/PBS for 30 minutes, and washed three times with 0.1% Tween 20/PBS, and then examined under a conforcal laser scanning microscope (Carl Zeiss).

HDAC6 [3] = test: Suppression of HDAC6 protein expression in HeLa cells (Western blot); details: for production of HDAC6, changing treatment time: 200 nM, 24, 30, 36 and 48 hours, FIG. 4
acetylated α-tubulin = test: Acetylation of α-tubulin in HeLa cells (Western blot); details: 200 nM, 24, 30, 36 and 48 hours, FIG. 4
Method: The each synthesized antisense oligonucleotide was dissolved in sterile water, and was introduced into HeLa cells using the OligofectAMINE (Invitrogen) according to an attached protocol. The 1.5×10^5 HeLa cells were plated in a 6-well plate, the final concentration of antisense oligonucleotide was set at 200 nM, and OligofectAMINE was used at 3 μl/well.
[…] After the cells were lysed with a SDS-PAGE sample buffer (BPB-free) and protein concentration was determined, the cell lysate at 25 μg/lane was separated by SDS-PAGE, transferred to a PVDF membrane, and immunoblotted with anti-acetylated α-tubulin antibody (clone 6-11B-1, Sigma), anti-α-tubulin antibody (clone DMlA, Sigma) or anti-HDAC6 antibody (H-300, Santa Cruz).

HeLa cells [4] = test: Induction of apoptosis in HeLa cells (Annexin V-PE, FACS); details: 200 nM, 24 to 48 hours, FIG. 6
Method: (§1) HeLa cells (1.5×10^5/well) were plated into a 6-well plate with MEM medium containing 10% FCS and 1× nonessential amino acids. HDAC6 antisense oligonucleotide No. 4, 5, 6 or 16 at the final concentration of 200 nM or the control oligonucleotide was introduced into the cells with OligofectAMINE at 3 μl/well, and the cells were treated for 24 hours, 30 hours, 36 hours, or 48 hours. The cells were detached by trypsin treatment and collected, and stained with Annexin V-PE (Becton Dickinson) according to a protocol attached, and analyzed using the FACS caliber (Becton Dickinson).
Thus, the collected cells were washed with PBS, suspended in 100 μl of the binding buffer (Becton Dickinson), to which suspension 5 μl of Annexin V-PE was added and incubated for 15 minutes, and the binding buffer was added to make a total volume of 500 μl. This was subjected to FACS analysis.

HeLa cells [5] = test: Depolarization of mitochondrial membrane potential in HeLa cells (JC-1, FACS); details: 200 nM, 24, 36 or 48 hours, FIG. 7
Method: as §1, with “5” for “5, 6”, “hours,” for “hours, 30 hours,”, “hours” for “hours,”, “Mitochondrial potential sensor JC-1 (Molecular Probes) was added to the medium at the final concentration of 10 μg/ml and the cells were further caltivated at 37° C. for 10 minutes. Ten minutes later, the” for “The”, “and” for “and stained with Annexin V-PE (Becton Dickinson) according to a protocol attached, and”
Therefore, in order to detect the cells in which mitochondrial membrane potential is depolarized, the ratio of green fluorescence-positive cells was graphically shown and used as an index of apoptosis.

HDAC6 [6] = test: Suppression of HDAC6 protein expression in HepG2, SW480, LoVo and Calu-1 cells (Western blot); details: HepG2, SW480, LoVo, Calu-1 cells; 200 nM, 48 hours; FIG. 8

In the case of `CC(=O)O[C@H]1C(=O)[C@@]2(C)[C@H]([C@H](OC(=O)c3ccccc3)[C@]3(O)C[C@H](OC(=O)[C@H](O)[C@@H](NC(=O)c4ccccc4)c4ccccc4)C(C)=C1C3(C)C)[C@]1(OC(C)=O)CO[C@@H]1C[C@@H]2O` [Paclitaxel], the “microtubule structure, stained with anti-acetylated α-tubulin antibody” value (HeLa cells [1]; 1 μM, 16 hours) was “hyperpolymerized microtubules from the centromere were observed”, the “microtubule structure, stained with anti-α-tubulin antibody” value (HeLa cells [1]; 1 μM, 16 hours) was “hyperpolymerized microtubules were observed in the periphery of the nucleus” and the “microtubules after Colcemid in pretreated cells” value (HeLa cells [2]) was “the remaining of the polymerized microtubules was observed”.

In the case of `CC(/C=C/C(=O)NO)=C\[C@@H](C)C(=O)c1ccc(N(C)C)cc1` [Trichostatin A], the microtubule structure (HeLa cells [1]; 1 μM Trichostatin A 16 hours or 200 nM antisense oligonucleotide 24 hours) was “images of polymerized microtubules were observed throughout the cytoplasm” and the “microtubules after Colcemid in pretreated cells” value (HeLa cells [2]) was “the remaining of the polymerized microtubules was observed”.

For “antisense oligonucleotide 5: phosphorothioated HDAC6 antisense oligonucleotide GCTGCCTGGT TGTGGTGGAA, complementary to a sequence downstream of ATG (antisense GCTGCCTGGTTGTGGTGGAA; all phosphorothioate, sugars by position and methylation of C not given here)”, the “production of HDAC6, changing treatment time” value (HDAC6 [3]) was “inhibits the production of HDAC6”, the “acetylation of α-tubulin, changing treatment time” value (acetylated α-tubulin) was “the acetylation of α-tubulin was enhanced at any time” and the “apoptosis judged by Annexin V positivity” value (HeLa cells [4]) was “induces apoptosis”. The “mitochondrial depolarization judged by JC-1 staining” value (HeLa cells [5]) was “induces mitochondrial depolarization”.

For “antisense oligonucleotide 6: phosphorothioated HDAC6 antisense oligonucleotide TTTATTACAT ATGCAACCTT, upstream sequence comprising the polyadenylation signal; used as negative control (antisense TTTATTACATATGCAACCTT; all phosphorothioate, sugars by position and methylation of C not given here)”, the “production of HDAC6, changing treatment time” value (HDAC6 [3]) was “inhibits the production of HDAC6” and the “acetylation of α-tubulin, changing treatment time” value (acetylated α-tubulin) was “enhances the acetylation of α-tubulin”.

With “control oligo: control oligonucleotide CCTCTTACCT CAGTTACAAT, from abnormal splicing site 705 of β globin pre-mRNA; no specific target in normal cells (antisense CCTCTTACCTCAGTTACAAT; all phosphorothioate, sugars by position and methylation of C not given here)” the “amount of expressed HDAC6 protein” value (HDAC6 [3]; 200 nM oligonucleotide, 48 hours after introduction, FIG. 3) was “did not have any activity of causing the reduction of HDAC6 protein expression” and the “amount of expressed HDAC6” value (HDAC6 [6]) was “did not have any activity of causing the reduction of HDAC6 protein expression”.
